Source: US11667630B2, “Nitrogen-containing 6-membered cyclic compound” (Asahi Kasei Pharma Corporation, priority 2017, dated 2023)

Tested on: rat femur closed fracture model
Assay: Fracture healing-promoting action in rat femur closed fracture model
Assay type: in vivo
Conditions: SD rats; for Bone union rate after 25 days (%): judged on soft X-ray images; for Maximum torque (N · cm): torsion test of femur four weeks after fracture
Text: In order to investigate fracture healing-promoting action of the compounds of the present invention, influence of injection of microspheres containing a test compound at a fracture site of a rat femur closed fracture model was confirmed.
Thirteen weeks old female SD rats (Japan SLC) were fixed in the side lying position under triple anesthesia (medetomidine hydrochloride, midazolam, and butorphanol tartrate). After hair of a region from the left knee to the femoral region was shaved with a hair clipper, and disinfection treatment was performed with povidone-iodine listed in Japanese Pharmacopoeia (Isodine solution for animals, 20 mg of povidone-iodine listed in Japanese Pharmacopoeia in 1 mL, Meiji Seika Pharma), the skin of the knee part and the medial great muscle of the lateral part of the patella were excised, and the patella was shifted from the femoral head. A drill bit attached to a trephine was put on the intercondylar fossa of the exposed femoral head, and manually rotated to make a bore. A Kirschner wire (Mizuho Co., Ltd.) having a diameter of 1.2 mm preliminarily cut in a length of 31 mm was inserted into the medullary cavity of the femur through the bore. Then, the left femoral region was fixed on a three-point bending test jig of a small desktop universal testing machine (EZ Test, Shimadzu Corp.), and closed fracture of the femoral diaphyseal was caused by giving a dynamic load. Whether fracture was successfully introduced or not was confirmed by confirming generation of a complete transverse fracture in the femoral diaphyseal on an X-ray image obtained with a soft X-ray generator (M-100W, Softex) and a digital X-ray sensor (NX-04, RF Co., Ltd.). A microsphere suspension obtained by suspending microspheres (prepared according to the method of Preparation Example 3) containing a test compound (compound of Example 23) in a CMC solution was injected into the fracture part in a volume of 100 μL as the administration volume (containing 100 or 300 μg of the test compound). As the control group, a drug liquid obtained by suspending the microspheres not containing the aforementioned test compound in the CMC solution (100 μL) alone was administered. One, two, and three weeks after the generation of fracture, soft X-ray images were taken under isoflurane anesthesia, and the areas of the callus part in the X-ray images were quantified by using Image J. Four weeks after the generation of fracture, soft X-ray images were taken under triple anesthesia, the animals were fixed in the supine position, and euthanized by bleeding, and the left femurs were extracted. […] The femur samples were cryopreserved until implementation of a bone strength test, and torsional strength was measured on the test day by using a bone strength measurement apparatus (MZ-500S, Maruto Instrument Co., Ltd.).

[1] = microspheres (Preparation Example 3) containing compound of Example 23, 100 μg injected into fracture part
[2] = microspheres (Preparation Example 3) containing compound of Example 23, 300 μg injected into fracture part
[3] = microspheres containing compound of Example 23, 100 μg
[4] = microspheres containing compound of Example 23, 300 μg

SMILES: O=C(O)c1ccc(CCN2C(=O)SCCN2CC[C@@H](O)Cc2cccc(C#Cc3ccsc3)c2)s1 [Example 23, (S)-5-(2-(4-(3-Hydroxy-4-(3-(thiophen-3-ylethynyl)phenyl)butyl)-2-oxo-1,3,4-thiadiazinan-3-yl)ethyl)thiophene-2-carboxylic acid]
- Callus area (mm^2) One week after fracture [1]: 5.24 ± 2.87 mm^2
- Callus area (mm^2) Three weeks after fracture [1]: 35.9 ± 6.3 mm^2
- Callus area (mm^2) Two weeks after fracture [1]: 28.6 ± 4.7 mm^2
- Callus area (mm^2) One week after fracture [2]: 6.01 ± 2.75 mm^2
- Callus area (mm^2) Three weeks after fracture [2]: 33.8 ± 6.8 mm^2
- Callus area (mm^2) Two weeks after fracture [2]: 28.9 ± 3.8 mm^2
- Bone union rate after 25 days (%) [3]: 90.0%
- Maximum torque (N · cm) [3]: 20.4 ± 7.1 N · cm
- Bone union rate after 25 days (%) [4]: 85.7%
- Maximum torque (N · cm) [4]: 26.3 ± 11.7 N · cm
